Where only a bound is given, the exact number is not on record here.

The target of one assay is T1, E. coli GroEL/ES (Escherichia coli, UniProt P0A6F5).
T1 construct: made in house; host or cells: GroEL in NEB 5-alpha E. coli; GroES in E. coli BL21 (DE3)
The assay can be described thus: GroEL/ES-mediated dRho refolding assay. In kind it is biochemical. The method, then:
Evaluating compounds for inhibition in the GroEL/ES-mediated dRho refolding assay. Reagent preparation: For this assay, five primary reagent stocks were prepared: 1) GroEL/ES-dRho binary complex stock; 2) ATP initiation stock; 3) thiocyanate enzymatic assay stock; 4) formaldehyde quench stock; 5) ferric nitrate reporter stock. Denatured rhodanese (dRho) was prepared by 3-fold dilution of rhodanese (Roche product #R^1756, diluted to 10 mg/mL with H2O) with denaturant buffer (12 M Urea, 50 mM Tris-HCl, pH 7.4, and 10 mM DTT). Rhodanese was completely denatured by incubating at room temperature for >45 min. The binary complex solution was prepared by slowly adding the dRho stock to a stirring stock of concentrated GroEL in modified folding buffer (50 mM Tris-HCl, pH 7.4, 50 mM KCl, 10 mM MgCl2, 5 mM Na2S2O3, and 1 mM DTT). The solution was centrifuged at 16,000×g for 5 minutes, and the supernatant was collected and added to a solution of GroES in modified folding buffer to give final protein concentrations of 100 nM GroEL, 120 nM GroES, and 80 nM dRho. The binary complex stock was prepared immediately prior to use. For the ATP initiation stock, ATP solid was diluted into modified folding buffer to a final concentration of 2.0 mM. The thiocyanate enzymatic assay stock was prepared to contain 70 mM KH2PO4, 80 mM KCN, and 80 mM Na2S2O3 in water. The formaldehyde quench solution contained 30% formaldehyde in water.
Assay Protocol: First, 10 μL aliquots of the GroEL/ES-dRho complex stock were dispensed into clear, flat-bottom 384-well polystyrene plates. […] After incubating for 40 minutes at 37° C. for the refolding cycle, 30 μL of the thiocyanate enzymatic assay stock was added and incubated for 60 min at room temperature for the refolded rhodanese enzymatic reporter reaction. The reporter reaction was quenched by adding 10 μL of the formaldehyde quench stock, and then 40 μL of the ferric nitrate reporter stock was added to quantify the amount of thiocyanate produced during the enzymatic reporter reaction, which is proportional to the amount of dRho refolded by GroEL/ES. After incubating at room temperature for 15 min, the absorbance by Fe(SCN)3 was measured at 460 nm using a Molecular Devices SpectraMax Plus384 microplate reader. A second set of baseline control plates were prepared analogously, but without GroEL/ES-dRho protein binary solution, to correct for possible interference from compound absorbance or turbidity. […] Results presented represent the averages of IC50 values obtained from at least four replicates.
Evaluating compounds for inhibition in the GroEL/ES-mediated dRho refolding assay. All compounds were evaluated for inhibiting E. coli GroEL/ES-mediated refolding of the denatured Rho reporter enzyme as per our previously reported procedure. Results presented represent the averages of IC50 values obtained from at least four replicates.

For assay [1], the system named is Enterococcus faecium strain NCTC 7171 (ATCC #19434). Put plainly: bacterial proliferation assay, E. faecium. In kind it is cell-based. The settings on record: read-out: Bacterial Proliferation EC50 E. faecium. The method, then: (§1) All compounds were evaluated for inhibiting the proliferation of E. coli and each of the ESKAPE bacteria. Results presented represent the averages of EC50 values obtained from at least four replicates. Evaluating compounds for inhibition of bacterial cell proliferation.
(§2) Growth Media: E. coli were grown with LB medium and all ESKAPE bacteria were grown in Brain Heart Infusion (BHI) medium (Becton, Dickinson and Company), with all liquid cultures supplemented with 25 mg/L Ca^2+ and 12.5 mg/L Mg^2+ to mimic physiological free concentrations of these cations. A 10 mg/mL Ca^2+ stock solution was prepared by dissolving 1.84 g of CaCl2.2H2O in 50 mL of deionized water, and a 10 mg/mL Mg^2+ stock solution was prepared by dissolving 4.18 g of MgCl2.6H2O in 50 mL deionized water—filter sterilized using 0.2 μm cellulose-acetate filters. 2.5 mL of the sterile 10 mg/mL Ca^2+ stock and 1.25 mL of the sterile 10 mg/mL Mg^2+ stock solutions were added per 1 L of autoclaved LB or BHI media to obtain 25 mg/L Ca^2+ and 12.5 mg/L Mg^2+ ions, respectively.
(§3) General Assay Protocol: Stock bacterial cultures were streaked onto LB or BHI agar plates and grown overnight at 37° C. Fresh aliquots of cation supplemented media were inoculated with single bacterial colonies and the cultures were grown overnight at 37° C. with shaking (240 rpm). The following morning, cultures were diluted 10-fold into fresh media and grown at 37° C. until bacteria had reached mid-log phase growth (OD600˜0.4-0.6). The cultures were then diluted into fresh media to achieve final OD600 readings of 0.017. Aliquots of these diluted cultures (30 μL) were added to clear, flat-bottom 384-well polystyrene plates that were previously stamped with 0.5 μL of test compounds in 20 μL of media (yielding initial OD600=0.01 bacterial cultures). All compounds were tested in dose-response with concentration ranges during the proliferation assays from 100 μM to 46 nM (3-fold dilution series). A second set of baseline control plates were prepared analogously, but without any bacteria added, to correct for possible compound absorbance and/or precipitation. […] Plates were then read at 600 nm using a Molecular Devices SpectraMax Plus384 microplate reader. […] Results presented represent the averages of EC50 values obtained from at least four replicates.
(§4) Evaluating analogs for inhibiting the growth of E. coli and the ESKAPE bacteria. Analogs were initially tested for antibacterial efficacy against representative strains of antibiotic-sensitive E. coli and the ESKAPE bacteria. To determine compound efficacy, bacterial proliferation assays were carried out in liquid media culture supplemented with physiological concentrations of free calcium and magnesium cations. For these assays, bacterial cultures (OD600=0.01) were exposed to test compounds in 8-point, 3-fold dilution series (100 μM to 46 nM concentration range), in 384-well plates. After addition of compounds to cultures, the plates were sealed with Breathe-Easy gas permeable membranes and allowed to grow to mid-log phase (OD600˜0.4-0.6), whereupon final OD600 readings were taken to assess for bacterial growth and inhibition.

Assay [2] has as its system Staphylococcus aureus strain Seattle 1945 (ATCC #25923). The assay can be described thus: bacterial proliferation assay, S. aureus. The assay is classed as cell-based. The settings on record: Staphylococcus aureus, ATCC25923; read-out: Bacterial Proliferation EC50 S. aureus. On the procedure:
as §1, §2, §3, §4

Assay [3] relates to Acinetobacter baumannii strain 2208 (ATCC 19606). Put plainly: bacterial proliferation assay, A. baumannii. The assay is classed as cell-based. The settings on record: ATCC19606, read-out: Bacterial Proliferation EC50 A. baumannii. The method, then: as §1, §2, §3, §4
Assay [4] has as its system Pseudomonas aeruginosa strain NCTC 10332 (ATCC #10145). The assay can be described thus: bacterial proliferation assay, P. aeruginosa. In kind it is cell-based. The settings on record: read-out: Bacterial Proliferation EC50 P. aeruginosa. On the procedure: as §1, §2, §3, §4

T1 sequence (P0A6F5 2-548): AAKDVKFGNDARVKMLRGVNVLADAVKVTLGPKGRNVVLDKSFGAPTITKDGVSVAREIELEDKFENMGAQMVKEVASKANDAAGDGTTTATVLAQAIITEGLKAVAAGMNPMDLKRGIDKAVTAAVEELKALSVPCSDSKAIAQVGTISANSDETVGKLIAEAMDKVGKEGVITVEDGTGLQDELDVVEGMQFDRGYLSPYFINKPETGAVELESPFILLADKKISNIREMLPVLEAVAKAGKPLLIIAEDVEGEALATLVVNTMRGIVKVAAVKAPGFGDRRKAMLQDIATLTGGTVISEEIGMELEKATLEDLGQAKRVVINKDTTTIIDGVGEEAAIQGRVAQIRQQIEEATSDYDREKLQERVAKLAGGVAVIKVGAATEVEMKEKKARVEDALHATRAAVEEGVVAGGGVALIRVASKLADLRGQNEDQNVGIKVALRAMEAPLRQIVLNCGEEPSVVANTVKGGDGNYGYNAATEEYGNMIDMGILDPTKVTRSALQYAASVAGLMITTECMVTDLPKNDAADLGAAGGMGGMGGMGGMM

On E. coli GroEL/ES, `O=Cc1ccc([N+](=O)[O-])o1` [Compound 41, reference compound] came in with an IC50 of 31 µM. The EC50 was 20 µM in assay [1], 5.8 µM in assay [2], 12 µM in assay [3] and greater than 100 µM in assay [4].

`O=C(N/N=C/c1ccc([N+](=O)[O-])o1)c1ccc(O)cc1` [Nifuroxazide, reference compound] gave an IC50 against E. coli GroEL/ES of 133 µM. Also, the EC50 in assay [1] was 8.1 µM; in assay [2] it was 16 µM; in assay [3] it was greater than 100 µM; in assay [4], greater than 100 µM.

`CN(C)c1ccc(C(=O)N/N=C/c2ccc(O)c3ncccc23)cc1` [Compound 8, 4-(dimethylamino)-N′-((8-hydroxyquinolin-5-yl)methylene)benzohydrazide]: on E. coli GroEL/ES, the IC50 is 7.9 µM. The EC50 in assay [1] was greater than 100 µM; in assay [2], 99 µM; in assay [3] it was greater than 100 µM; in assay [4], greater than 100 µM.

Take `O=C(N/N=C/c1ccc(O)c2ncccc12)c1cccc(Oc2ccccc2)c1` [Compound 11, N′-((8-hydroxyquinolin-5-yl)methylene)-3-phenoxybenzohydrazide]: the midpoint of inhibition at E. coli GroEL/ES, the IC50, lay at 7.8 µM. The EC50 in assay [1], in assay [2], in assay [3] and in assay [4] was greater than 100 µM in each case.

As to `CCN(CC)S(=O)(=O)c1cccc(C(=O)N/N=C/c2ccc(O)c3ncccc23)c1` [Compound 12, N,N-diethyl-3-(2-((8-hydroxyquinolin-5-yl)methylene)hydrazine-1-carbonyl)benzenesulfonamide], 10 µM corresponded to half-maximal inhibition against E. coli GroEL/ES (IC50). For the same compound, the EC50 in assay [1] was greater than 100 µM; in assay [2] it was greater than 100 µM; in assay [3], greater than 100 µM; in assay [4] it was 85 µM.

Turning to `CCN(CC)S(=O)(=O)c1cccc(C(=O)N/N=C/c2ccc([N+](=O)[O-])o2)c1` [Compound 25, N,N-diethyl-3-(2-((5-nitrofuran-2-yl)methylene)hydrazine-1-carbonyl)benzenesulfonamide], it took 100 µM to reach half-maximal inhibition at E. coli GroEL/ES (IC50). In addition, the EC50 in assay [1] was greater than 100 µM; in assay [2], 9.6 µM; in assay [3], greater than 100 µM; in assay [4], greater than 100 µM.

On E. coli GroEL/ES, `COc1ccc(C(=O)N/N=C/c2ccc(O)c3ccccc23)cc1` [Compound 29, N′-((4-hydroxynaphthalen-1-yl)methylene)-4-methoxybenzohydrazide] came in with an IC50 of 117 µM. In addition, the EC50 in assay [1], in assay [2], in assay [3] and in assay [4] was greater than 100 µM throughout.

With `O=C(N/N=C/c1ccc(O)c2ncccc12)c1ccc(Cl)s1` [Compound 4, 5-chloro-N′-((8-hydroxyquinolin-5-yl)methylene)thiophene-2-carbohydrazide], on E. coli GroEL/ES, the IC50 worked out at 1.4 µM. Moreover, the EC50 was 70 µM in assay [1], 84 µM in assay [2], greater than 100 µM in assay [3] and greater than 100 µM in assay [4].

Turning to `O=C(N/N=C/c1cccc2ncccc12)c1ccccc1` [Compound 32, N′-(quinolin-5-ylmethylene)benzohydrazide], at E. coli GroEL/ES, the IC50 is greater than 250 µM. Also, the EC50 in assay [1], in assay [2], in assay [3] and in assay [4] was greater than 100 µM throughout.

`O=C(N/N=C/c1ccc([N+](=O)[O-])o1)c1ccc(NS(=O)(=O)c2cccs2)cc1` [Compound 26, N-(4-(2-((5-nitrofuran-2-yl)methylene)hydrazine-1-carbonyl)phenyl)thiophene-2-sulfonamide]: the IC50 on E. coli GroEL/ES was 62 µM. The EC50 in assay [1] was 11 µM; in assay [2] it was 11 µM; in assay [3], greater than 100 µM; in assay [4], greater than 100 µM.

`O=C(N/N=C/c1ccc(O)c2ccccc12)c1ccccc1` [Compound 30, N′-((4-hydroxynaphthalen-1-yl)methylene)benzohydrazide] came in with an IC50 against E. coli GroEL/ES of 216 µM. Besides, the EC50 is greater than 100 µM in assay [1], 88 µM in assay [2], greater than 100 µM in assay [3] and greater than 100 µM in assay [4].

As usually defined, the IC50 is the concentration that inhibits the measured activity by half. A higher IC50 goes with weaker potency in that assay.

The values are drawn from patent US20220009914A1, “Analogs of Nitrofuran Antibiotics to Combat Resistance” (The Trustees of Indiana University, priority 2020, published 2022).
